Test results published in the supplement of paper PMC10307832.

Tests used:
Assay in all cases: relative viability (nuclei count vs DMSO), 5 days (fraction); higher = more cells survive
[1] = compound: C1=CC(=CC=C1NC(=S)NNC2=C(C=C(C=C2[N+](=O)[O-])C(F)(F)F)[N+](=O)[O-])F [Kobe2602] + COc1cc2c(Oc3ccc(NC(=O)C4(C(=O)Nc5ccc(F)cc5)CC4)cc3F)ccnc2cc1OCCCN1CCOCC1 [Foretinib] (partner 0.25 µM)
Outline: (§1)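 For relative viability, nuclei counts in treated wells were divided by those in vehicle wells. Lung cancer cell lines had been pin-tool dosed in 1536-well plates the day after seeding and cultured for 5 days, then fixed and stained in one step (final 0.05% Triton X-100, 1% formaldehyde, 1 ug/ml Hoechst) and imaged at 4×. Doses were one drug alone or a fixed anchor-drug dose plus five library-drug doses (not always all listed) in √10 steps, and values are duplicate-plate medians.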

[2] = compound: COc1cc2nccc(Oc3ccc(NC(=O)C4(C(=O)Nc5ccc(F)cc5)CC4)cc3)c2cc1OC [Cabozantinib] + CCNC(=O)c1noc(-c2cc(C(C)C)c(O)cc2O)c1-c1ccc(CN2CCOCC2)cc1 [Luminespib] (partner 0.01 µM)
Outline: as §1

[3] = compound: COc1cc2nccc(Oc3ccc(NC(=O)C4(C(=O)Nc5ccc(F)cc5)CC4)cc3)c2cc1OC [Cabozantinib] + COc1cc2c(Oc3ccc(NC(=O)C4(C(=O)Nc5ccc(F)cc5)CC4)cc3F)ccnc2cc1OCCCN1CCOCC1 [Foretinib] (partner 0.25 µM)
Outline: as §1

[4] = compound: O[C@@H](COc1cccc2ncccc12)CN1CCN([C@@H]2c3ccccc3[C@@H]3[C@H](c4ccccc42)C3(F)F)CC1 [Zosuquidar] + NC(=O)Nc1cc(-c2cccc(F)c2)sc1C(=O)N[C@H]1CCCNC1 [AZD7762] (partner 0.2 µM)
Outline: as §1

Cell Line | relative viability ([1]; first compound 0.2 µM) | relative viability ([1]; first compound 0.6325 µM) | relative viability ([1]; first compound 2 µM) | relative viability ([1]; first compound 6.325 µM) | relative viability ([1]; first compound 20 µM) | relative viability ([2]; first compound 0.06325 µM) | relative viability ([2]; first compound 0.2 µM) | relative viability ([2]; first compound 0.6325 µM) | relative viability ([2]; first compound 2 µM) | relative viability ([3]; first compound 0.06325 µM) | relative viability ([3]; first compound 0.2 µM) | relative viability ([3]; first compound 0.6325 µM) | relative viability ([3]; first compound 2 µM) | relative viability ([4]; first compound 0.01 µM) | relative viability ([4]; first compound 0.03162 µM) | relative viability ([4]; first compound 0.1 µM) | relative viability ([4]; first compound 0.3162 µM) | relative viability ([4]; first compound 1 µM) | relative viability ([2]; first compound 0.02 µM) | relative viability ([3]; first compound 0.02 µM)
LC-2-ad | 0.94 | 0.946 | 0.932 | 1.03 | 0.996 | 1.1 | 1.03 | 0.914 | 0.956 | 1.03 | 0.889 | 1.02 | 0.89 | 0.78 | 0.855 | 0.883 | 0.842 | 0.787 | – | –
ABC-1 | 0.957 | 0.922 | – | 0.93 | 1.3 | 0.494 | 0.83 | 1.11 | 0.758 | 1.13 | 1.11 | 1 | 0.932 | 0.69 | 0.864 | 0.665 | 0.717 | 0.733 | 0.458 | 1.15
NCI-H727 | 0.855 | 0.991 | 0.919 | 1.1 | 0.873 | 0.453 | 0.643 | 0.362 | 0.312 | 1.06 | 1.08 | 0.818 | 0.889 | 0.502 | 0.573 | – | 0.714 | 0.405 | 0.285 | 0.675
EPLC-272H | 0.41 | 0.937 | 0.667 | 0.668 | 0.796 | 0.282 | 0.14 | 0.476 | 0.256 | 0.884 | 0.515 | 0.82 | 0.782 | 0.233 | 0.154 | 0.29 | 0.32 | 0.222 | 0.418 | 0.77
EKVX | 1.05 | 0.753 | 0.7 | 0.839 | 1.03 | 1.02 | 0.918 | 0.751 | 0.893 | 0.862 | 0.81 | 0.536 | 0.852 | 0.747 | 0.77 | – | 0.752 | 0.659 | 0.859 | 0.77
NCI-H1666 | 0.961 | 0.952 | 0.973 | 0.963 | 1.04 | 1 | 1.02 | 1.04 | 1.06 | 1.06 | 0.99 | 0.949 | 0.981 | 0.852 | 0.979 | 0.752 | 0.826 | 0.862 | 0.968 | 1.04
HCC-15 | 0.979 | 1.09 | 0.974 | 1.09 | 0.974 | 0.361 | 0.515 | 0.394 | 0.214 | 1.13 | 1.06 | 1.04 | 1.07 | 1.11 | 1.27 | 1.17 | 1.18 | 1.16 | 0.374 | 1.26
LCLC-103H | 0.82 | 0.905 | 0.751 | 0.832 | 0.723 | 0.962 | 1.03 | 0.983 | 0.905 | 0.695 | 0.778 | 0.745 | 0.756 | 0.793 | 0.76 | 0.672 | 0.755 | 0.809 | 1.07 | 0.909
